# Measurements reported in patent US20230042929A1, “Methods of Screening to Determine Effective Dosing of Cancer Therapeutics” (Kiyatec, Inc., priority 2019, published 2023).
# Read-outs that look alike come from different tables or passages of the source.
# Assays:
# [1] = tested on: recurrent platinum-resistant OC; settings: patients with recurrent platinum-resistant OC; cited from earlier work
# [2] = tested on: melanoma cell line with tumor infiltrating lymphocytes; experiment: Image based assay of tumor and T-cell interactions in 3D spheroids; settings: 1:3 E:T, up to 72 hours, drug alone
# Procedure: Referring to FIGS. 25A-H, a summary of an image-based assay for measuring tumor and T-cell interactions for I/O applications is shown. FIG. 25(A) illustrates representative images of a melanoma cell line (Green) and tumor infiltrating lymphocytes (Red) at a 1:3 Effector:Target cell ratio (E:T) cultured as 3D spheroids at 72 hours, Scale bar=200 μm. Groups were treated with immunomodulators (Activator=CD3/CD28 antibody, Durva=Durvalumab) and analyzed every 24 hours for 72 hours (FIGS. 25F-25H). Total red or green fluorescence was measured for T-cells (FIGS. 25B and 25C) and tumor cells (FIG. 25F) using an algorithm developed in Celleste Image Analysis software. Imaging based metrics were compared to conventional methods for assessing cell viability, CellTiter-Glo® (FIGS. 25D and 25G) and flow cytometry (FIGS. 25E and 25H). An increase in T-cell viability in all treatment groups was observed compared to no treatment when cultured with tumor cells (D). Total green fluorescence signal (F) was an acceptable indicator of T-cell induced cytotoxicity when compared to CellTiter-Glo® (FIG. 25G). The use of flow cytometry as a metric for T-cell induced cytotoxicity appears to not be as sensitive at earlier timepoints (24 hrs) as at later timepoints (72 hours). […] Two-Way ANOVA, error bars reflect SD. *p<0.05, **p<0.01, ***p<0.001.
# [3] = tested on: OVC45 and OVC33 ovarian cancer patient derived 3D spheroids; experiment: 3D spheroid drug response assay (CellTiter-Glo 3D, imaging); format: cell-based, human
# Procedure: Live OC tissue was received within 24 hours of surgery and dissociated to single cells via mechanical and enzymatic digestion. Cells were then cryopreserved until ready for use. 3D spheroids were generated as previously described. Briefly, cells were seeded in KIYA-PREDICT™ media (KIYATEC, Inc., South Carolina, USA) in 384-well round bottom, ultra-low attachment plates (Corning Inc., New York, USA) and centrifuged at 500×g for five minutes then placed in a 37° C. incubator at 5% CO2.
# Given the prevalence of drug resistance and altered drug penetration for 3D cultures, drug concentrations for single dose experiments were in the micromolar or microgram per milliliter range for testing. […] Viability was determined 48 hours later. For durvalumab (Selleckchem, Texas, USA) and olaparib combination studies, spheroids were treated with olaparib for 48 hours, followed by durvalumab for an additional 72 hours. […] T-cells were then added to the bulk cells and seeded for 3D spheroid culture. Viability was determined 48 hours later. Viability read outs were conducted using CellTiter-Glo® 3D Cell Viability Assay (Promega, Wisconsin, USA) and relative luminescence units (RLUs) were recorded using a TECAN infinite M1000pro (Mannedorf, Switzerland).
# Statistical analysis was performed using GraphPad Prism software version 8.2.1. Results are expressed as the mean±standard deviation (SD). Unpaired t tests were used to determine significance between two groups. Unpaired One-way ANOVA with multiple comparisons was used to determine significance across three or more groups. Combenefit software generated concentration responses and Loewe synergy indices from calculated percent viability normalized to vehicle control.
# [4] = cited from earlier work; for half-life: in vivo
# [5] = tested on: CD3+ T cells infiltrating matched melanoma microtumors; experiment: Detection of T cell infiltration in microtumor model; format: cell-based, human
# Procedure: Detection of T cell infiltration. T cells were stained with the fluorescent stain PKH (Sigma PKH26GL-1KT) according to manufacturer's recommendations. On the same day, T cells and tumor cells were seeded in EV3D media and Matrigel (Corning 356234) in scaffolds. Scaffolds were incubated for 1 hour at 37° C. and 5% CO2 then 200 μl of EV3D media was added to each scaffold well. After an additional hour, T cell scaffolds were placed on top of tumor cell scaffolds (microtumors). Media was changed every one or two days. Viability was determined for T cell scaffolds and microtumors after one week using PrestoBlue™ Cell Viability Reagent (Invitrogen A13262). Microtumors were washed in PBS, then harvested using Liberase DH (Sigma LIBDH− RO) in serum-free media while rotating at 37° C. 5% CO2. Harvested cells were then analyzed for PKH (PE channel), and CD3 using flow cytometry. Unstained T cells were used to define PKH+ gates.
# [6] = tested on: GM-CSF, IFNγ, Granzyme B, MIP-1α, MIP-1β, TNFα secretion; experiment: Detection of analyte secretion in microtumor model (Milliplex); format: cell-based, human
# Procedure: Detection of Analyte Secretion. Individual beads (GM-CSF, IFNγ, Granzyme B, MIP-1α, MIP-1β, TNFα) were purchased from the Milliplex™ MAP Human CD8+ T cell Magnetic Bead Panel 96-well Plate Assay (EMO Millipore HCD8MAG-15K). Supernatant was collected at day seven of microtumor viability assays and stored at −80° C. Samples were processed according to manufacturer's recommendations and the assay plate was run on the BIORAD Luminex® BioPLEX200™ System (Hercules, Calif.). Analyte concentration was determined by interpolation of assay standards using GraphPad Prism.
# GEN26 tumor spheroids = experiment: Tumor spheroid death assay (CellTiter-Glo 3D); format: cell-based, human; settings: 24 hours
# Procedure: Tumor spheroid death assay. […] After a 1 hour incubation at 37 C 5% CO2, plates were centrifuged for 5 minutes at 500×g. Tumor spheroids were allowed to form overnight. After 24 or 72 hours, CellTiter-Glo® 3D Cell Viability Assay (Promega G9683) was used according to manufacturer's recommendations and relative luminescence units (RLUs) were recorded using a TEGAN infinite M1000pro (Mannedorf, Switzerland). RLUs were graphed using GraphPad Prism.
# [7] = tested on: melanoma microtumors co-cultured with stacked T cell compartment; experiment: Microtumor viability assay (PrestoBlue growth rate); format: cell-based, human
# Procedure: PrestoBlue viability assays. PrestoBlue™ Cell Viability Reagent (Invitrogen A13262) was diluted 1:10 in EV3D media. Each T cell scaffold or microtumor was placed in 250 μl of diluted PrestoBlue reagent in a 96-well plate and allowed to incubate for 2 hours at 37° C. 5% CO2. Scaffolds and microtumors were then placed in fresh media and duplicates of 100 μl per PrestoBlue sample was pipetted into a black walled 96-well plate and read on a TECAN infinite M1000pro (Mannedorf, Switzerland) at an excitation of 560 nm and an emission 590 nm with a gain of 60. Absorbance measurements from scaffolds with no cells were subtracted from each sample and relative fluorescent units (RFU) were graphed using GraphPad Prism.
# Microtumor viability assay. T cells and tumor cells were seeded in EV3D media and Matrigel (Corning 356234) with collagen (Corning 354236) in scaffolds. […] Scaffolds were incubated for 1 hour at 37° C. and 5% CO2 then 200 μl of EV3D media was added to each scaffold. After an additional hour, T cell scaffolds were placed on top of tumor cell scaffolds (microtumors) or microtumors were cultured in the absence of a stacked T cell scaffold. Media was changed every one to two days. Supernatant from day seven was collected and stored at −80° C. for analyte analysis. Viability was determined for T cell scaffolds and microtumors after 24 hours (day one) and at day seven using PrestoBlue™ Cell Viability Reagent (Invitrogen A13262). PrestoBlue absorbance readings (RFUs) for day one were subtracted from day seven to determine microtumor growth rates.
# [8] = tested on: T cells stimulated with matched melanoma tumor spheroids; experiment: Tumor spheroid assay to assess T cell responses (flow cytometry); format: cell-based, human
# Procedure: Tumor spheroid assay to assess T cell responses. Expanded T cells were cultured in the absence of activation components (EV3D media) for 72 hours prior to tumor spheroid assay. […] After a 1 hour incubation, plates were centrifuged for 5 minutes at 500×g. Patient samples were then cultured for 24 hours, and wells were then harvested for flow cytometric analysis.
# Flow cytometry. Cells were harvested from 384-well plates following tumor spheroid assays or dissociated from scaffolds and resuspended in 100 μl FACS buffer (2% FBS, 2 mM EDTA, 0.05% sodium azide in PBS). […] Samples were then analyzed using the CytoFLEX LX flow cytometer and software (Beckman Coulter, Brea, Calif.). Percent of parent was then graphed and evaluated for statistics using GraphPad Prism.
compound,measurement,setting,value
NC(=O)c1cccc2cn(-c3ccc([C@@H]4CCCNC4)cc3)nc12 [niraparib],"complete or partial responses, share of patients",[1],< 5%
durvalumab,T-cell induced cytotoxicity,[2],did not cause significant T-cell induced cytotoxicity
same,spheroid viability,"[3]; durvalumab alone, dose-response, OVC45 and OVC33",did not result in a dose-dependent reduction in spheroid viability
same,half-life,[4]; human,high
same,predicted achievable serum concentration levels,[4]; twice weekly intravenous dosing regimen,greater than 10 μg/mL
pembrolizumab,infiltration of CD3+ T cells,"[5]; GEN19 and GEN20, with vs without treatment",decrease was observed
same,infiltration of CD3+ T cells,"[5]; GEN21 and GEN26, with vs without treatment",increase in infiltration of CD3+ T cells
same,granzyme B secretion,"[6]; GEN19, day 7, 100 μg/ml",greatest increase
same,analyte secretion,"[6]; GEN19 and GEN26, day 7, 100 μg/ml, vs no treatment",increase in nearly all analytes tested
same,analyte secretion,"[6]; GEN20, day 7, 100 μg/ml",reduction of all tested analytes
same,analyte secretion,"[6]; GEN21, day 7, 100 μg/ml",increase in GM-CSF and moderate or no change for other tested analytes
same,spheroid viability,"[3]; OVC33, T-cells incubated with 300 μg/mL pembrolizumab before 3D incorporation, 48 hours",significant reduction in spheroid viability
same,spheroid viability,"[3]; OVC45 and OVC33, 100 μg/mL pembrolizumab alone, 48 hours",decrease in spheroid viability with pembrolizumab treatment alone was not detected for both samples
same,half-life,[4],approximately 27 days
same,predicted maximum serum concentration,"[4]; intravenous 10 mg/kg once every two weeks, advanced solid tumor cancer patients",approximately 200 μg/mL
same,tumor spheroid viability,"GEN26 tumor spheroids; GEN26 tumor spheroids alone, 100 μg/ml, vs no treatment",slight decrease in viability
same,tumor spheroid viability,"GEN26 tumor spheroids; GEN26 tumor spheroids co-cultured with T cells, ratio 1:5, 100 μg/ml",greatest reduction in tumor spheroid viability
same,microtumor growth rate,"[7]; GEN19 and GEN26, 100 μg/ml, day 1 to day 7, vs untreated",reduced microtumor growth rates compared to untreated
same,microtumor growth rate,"[7]; GEN20 or GEN21, 100 μg/ml, day 1 to day 7, vs no treatment",did not detect a difference in microtumor growth rates
same,overall microtumor viability,"[7]; GEN26, 100 μg/ml, vs untreated microtumors",reduction in overall microtumor viability
same,PrestoBlue RFU readings,"[7]; day one to day seven, GEN19, GEN26, GEN20, GEN21",altered the RFU readings over the 7 day period for GEN19 and GEN26 more significantly than GEN20 and GEN21
same,CD3+/PD-1−/CD69+ population (T cell activation),"[8]; GEN25, data not shown",did not display an increase
same,CD3+/PD-1−/CD69+ levels (T cell activation),"[8]; three patients (GEN19, GEN21, GEN26), tumor spheroids + 100 μg/ml pembrolizumab vs T cells with or without spheroids",significant increase
O=C(c1cc(Cc2n[nH]c(=O)c3ccccc23)ccc1F)N1CCN(C(=O)C2CC2)CC1 [olaparib],spheroid appearance,"[3]; OVC33, 48 hours, images",less dense with less cell contact
same,"spheroid viability, relative sensitivity of samples","[3]; olaparib alone, 50 μM (OVC33) or 100 μM (OVC45), 48 hours",OVC33 was more sensitive to olaparib alone compared to OVC45
same,"spheroid viability, relative sensitivity of samples","[3]; single agent olaparib dose-response, sequential dosing study",OVC33 remained more sensitive to single agent olaparib than OVC45
